Patent publication US20230372318A1, “METHODS FOR TREATING A SUBJECT HAVING MULTIPLE SYSTEM ATROPHY” (Theravance Biopharma R&D IP, LLC, priority 2022, published 2023)

System: subjects with primary autonomic failures (MSA, PD, or PAF) and symptomatic nOH
Assay: Phase 3 22-week randomized withdrawal study in symptomatic nOH (Example 7)
Type: in vivo, human
Set-up: OHSA composite score, LS Mean / OHSA composite score, Mean / OHSA composite score, Median / OHSA composite score, LS Mean Difference / OHDAS item 1 (standing for a short time) score, Mean / OHDAS item 1 (standing for a short time) score, Median / OHDAS item 1 (standing for a short time) score, LS Mean / OHDAS item 1 (standing for a short time) score, LS Mean Difference: scale not given here
Conditions: MSA subjects; for OHSA composite score, LS Mean / OHSA composite score, Mean / OHSA composite score, Median / OHSA composite score, LS Mean Difference: change at week 22, end of 6-week double-blind period; for OHSA composite score, LS Mean Difference / OHDAS item 1 (standing for a short time) score, LS Mean Difference: vs placebo; for OHDAS item 1 (standing for a short time) score, LS Mean / OHDAS item 1 (standing for a short time) score, Mean / OHDAS item 1 (standing for a short time) score, Median / OHDAS item 1 (standing for a short time) score, LS Mean Difference: week 22, end of 6-week double-blind period
Procedure: The study consisted of a 16-week open-label (OL) treatment period with ampreloxetine followed by a 6-week double-blind randomized withdrawal period where subjects were administered either ampreloxetine or placebo.
Eligible subjects were either (i) completers of the study of Example 6 (“Completers Group”), or (ii) symptomatic nOH subjects meeting all applicable study inclusion criteria and none of the applicable exclusion criteria (“De Novo Group”).
A 4-week screening period applied to the De Novo Group only and the Screening visit was conducted in clinic for all De Novo Group subjects.
A total of 203 subjects entered this study (170 subjects from Example 6 (85 from the ampreloxetine group and 85 from the placebo group) and 33 de novo subjects). During the OL period, 55 subjects discontinued treatment. At 16 weeks, 64 subjects were randomized to the ampreloxetine group (6 subjects discontinued the study) and 64 subjects were randomized to the placebo group (3 subjects discontinued the study). A total of 119 subjects completed the study. Of the 128 subjects entering the randomized period, 40 subjects had MSA (31%); 68 subjects had PD (53%); and 20 subjects had PAF (16%) (in each category, the subjects were split equally between ampreloxetine and placebo).
Beginning on Day 2, subjects received a single dose of 10 mg ampreloxetine once daily (QD) and continued thereafter for the 16-week duration of the OL treatment period. Following this 16-week OL treatment period, subjects were randomized to either continue on the active treatment or placebo (“PBO”) for a period of 6 weeks.
Subjects enrolled into the OL period of the study had visits scheduled for Day 15, Day 29, and every 4 weeks thereafter for assessments as outlined in the Schedule of Study Procedures. […] Those subjects not meeting this continuation criterion were discontinued and underwent an end of study visit. The end of study visit was completed within 2 weeks from the date of the last dose.
Following the completion of a total of 16 weeks OL treatment with ampreloxetine (V6), subjects were assessed for randomization in a 1:1 manner. Eligible subjects received 6 weeks of double-blind treatment of ampreloxetine or PBO once daily. Only subjects with OHSA #1 score of ≤7 were eligible for randomization for the double-blind treatment period.
Exploratory assessments included: orthostatic standing test; NMSS; EQ-5D-5L; HADS; and BSFC-s. For subjects with PD, exploratory assessments included: Unified Parkinson's Disease Rating Scale (UPDRS); and Parkinson's Disease Questionaire-8 (PDQ-8). For subjects with MSA, exploratory assessments included: Unified Multiple System Atrophy Rating Scale (UMSARS); and Composite Autonomic Symptom Score-31 (COMPASS-31).
The secondary endpoints included: • (a) Change from baseline in OHSA #1 at Week 6 post randomization (V9, D155); • (b) Change from baseline in OHSA composite score at Week 6 post randomization (V9, D155); • (c) Change from baseline in OHDAS composite score at Week 6 post randomization (V9, D155); • (d) Change from baseline in PGI-S at Week 6 post randomization (V9, D155); • (e) Change from baseline in percentage of time spent in standing position as measured by a wearable device at Week 6 post randomization (V9, D155); and • (f) Change from baseline in average number of steps taken as measured by a wearable device at Week 6 post randomization (V9, D155).

## Fc1cc(F)c(OCc2ccccc2C2CCNCC2)c(F)c1 [Ampreloxetine, 4-[2-(2,4,6-trifluorophenoxymethyl)phenyl]piperidine]
<65 Years
  OHSA composite score, LS Mean: 0.55
  OHSA composite score, Mean: 0.8
  OHSA composite score, Median: 0.4
  OHSA composite score, LS Mean Difference: −1.09
  OHDAS item 1 (standing for a short time) score, LS Mean: −0.5
  OHDAS item 1 (standing for a short time) score, Mean: 0.0
  OHDAS item 1 (standing for a short time) score, Median: 0.0
  OHDAS item 1 (standing for a short time) score, LS Mean Difference: −2.9
>=65 Years
  OHSA composite score, LS Mean: −0.60
  OHSA composite score, Mean: −0.75
  OHSA composite score, Median: −0.70
  OHSA composite score, LS Mean Difference: −2.17
  OHDAS item 1 (standing for a short time) score, LS Mean: −0.4
  OHDAS item 1 (standing for a short time) score, Mean: −0.3
  OHDAS item 1 (standing for a short time) score, Median: 0.0
  OHDAS item 1 (standing for a short time) score, LS Mean Difference: −1.0
Female
  OHSA composite score, LS Mean: 0.2078
  OHSA composite score, Mean: 0.23
  OHSA composite score, Median: 0.00
  OHSA composite score, LS Mean Difference: −1.3996
  OHDAS item 1 (standing for a short time) score, LS Mean: 0.2
  OHDAS item 1 (standing for a short time) score, Mean: 0.3
  OHDAS item 1 (standing for a short time) score, Median: 0.0
  OHDAS item 1 (standing for a short time) score, LS Mean Difference: −1.0
MSA diagnosis <1.3 years
  OHSA composite score, LS Mean: 0.73
  OHSA composite score, Mean: 0.67
  OHSA composite score, Median: 0.70
  OHSA composite score, LS Mean Difference: −1.24
  OHDAS item 1 (standing for a short time) score, LS Mean: 0.7
  OHDAS item 1 (standing for a short time) score, Mean: 0.1
  OHDAS item 1 (standing for a short time) score, Median: 0.0
  OHDAS item 1 (standing for a short time) score, LS Mean Difference: −2.7
MSA diagnosis >=1.3 years
  OHSA composite score, LS Mean: −0.67
  OHSA composite score, Mean: −0.64
  OHSA composite score, Median: −0.10
  OHSA composite score, LS Mean Difference: −1.78
  OHDAS item 1 (standing for a short time) score, LS Mean: −0.6
  OHDAS item 1 (standing for a short time) score, Mean: −0.4
  OHDAS item 1 (standing for a short time) score, Median: 0.0
  OHDAS item 1 (standing for a short time) score, LS Mean Difference: −0.7
MSA-C
  OHSA composite score, LS Mean: 1.10
  OHSA composite score, Mean: 0.76
  OHSA composite score, Median: 0.50
  OHSA composite score, LS Mean Difference: −0.68
  OHDAS item 1 (standing for a short time) score, LS Mean: 0.9
  OHDAS item 1 (standing for a short time) score, Mean: 0.7
  OHDAS item 1 (standing for a short time) score, Median: 0.0
  OHDAS item 1 (standing for a short time) score, LS Mean Difference: −1.0
MSA-P
  OHSA composite score, LS Mean: −0.50
  OHSA composite score, Mean: −0.39
  OHSA composite score, Median: 0.05
  OHSA composite score, LS Mean Difference: −1.72
  OHDAS item 1 (standing for a short time) score, LS Mean: −1.2
  OHDAS item 1 (standing for a short time) score, Mean: −0.7
  OHDAS item 1 (standing for a short time) score, Median: 0.0
  OHDAS item 1 (standing for a short time) score, LS Mean Difference: −2.7
Male
  OHSA composite score, LS Mean: −0.3923
  OHSA composite score, Mean: −0.46
  OHSA composite score, Median: 0.20
  OHSA composite score, LS Mean Difference: −1.8762
  OHDAS item 1 (standing for a short time) score, LS Mean: −1.2
  OHDAS item 1 (standing for a short time) score, Mean: −0.8
  OHDAS item 1 (standing for a short time) score, Median: 0.0
  OHDAS item 1 (standing for a short time) score, LS Mean Difference: −2.8
Overall
  OHSA composite score, Mean: −0.05
  OHSA composite score, Median: 0.05
  OHSA composite score, LS Mean Difference: −1.57
  OHDAS item 1 (standing for a short time) score, LS Mean: −0.4
  OHDAS item 1 (standing for a short time) score, Mean: −0.2
  OHDAS item 1 (standing for a short time) score, Median: 0.0
  OHDAS item 1 (standing for a short time) score, LS Mean Difference: −2.0
Overall, placebo 1.54, p=0.0056
  OHSA composite score, LS Mean: −0.03
Pre treatment baseline OHSA1 <7
  OHSA composite score, LS Mean: −0.22
